From the supplement of paper PMC5844555

Experiments:
Test in all cases: 3' UTR reporter interaction score (median-centred robust z-score of log2 firefly/Renilla activity); higher = less repression of the 3' UTR reporter
Conditions in all cases: HEK293T; 48 h
MYB = tested on: MYB
Outline: (§1)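 HEK293T cells (10,000/well, 96-well plates) were co-transfected using DharmaFECT Duo with 100 ng firefly luc2P reporter carrying the gene's 3' UTR, 20 ng Renilla pRL-TK control and 2.5 pmol miRNA mimic. Dual-luciferase activities were read 48 h post-transfection. The interaction score is the log-transformed firefly/Renilla ratio as a per-plate robust z-score (median, median absolute deviation), median-centred per miRNA and averaged over at least two independent screens; more negative indicates interaction.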

BRCA2 = tested on: BRCA2
Outline: as §1

PHF6 = tested on: PHF6
Outline: as §1

MYC = tested on: MYC
Outline: as §1

MYT1L = tested on: MYT1L
Outline: as §1

NOTCH1 = tested on: NOTCH1
Outline: as §1

HRAS = tested on: HRAS
Outline: as §1

PHOX2B = tested on: PHOX2B
Outline: as §1

FBXW7 = tested on: FBXW7
Outline: as §1

MYCN = tested on: MYCN
Outline: as §1

ZEB2 = tested on: ZEB2
Outline: as §1

EZH2 = tested on: EZH2
Outline: as §1

RB1 = tested on: RB1
Outline: as §1

TP53 = tested on: TP53
Outline: as §1

Sequence	3' UTR reporter interaction score (MYB)	3' UTR reporter interaction score (BRCA2)	3' UTR reporter interaction score (PHF6)	3' UTR reporter interaction score (MYC)	3' UTR reporter interaction score (MYT1L)	3' UTR reporter interaction score (NOTCH1)	3' UTR reporter interaction score (HRAS)	3' UTR reporter interaction score (PHOX2B)	3' UTR reporter interaction score (FBXW7)	3' UTR reporter interaction score (MYCN)	3' UTR reporter interaction score (ZEB2)	3' UTR reporter interaction score (EZH2)	3' UTR reporter interaction score (RB1)	3' UTR reporter interaction score (TP53)
UCCCUGAGACCCUUUAACCUGUG	-0.228	0.772	1.62	0.131	0.364	-0.719	1.12	-2.78	-0.449	-0.334	0.152	1.1	0.0838	-3.91
UUGUACAUGGUAGGCUUUCAUU	1.15	-0.0352	-1.11	1.21	-0.141	0.647	0.289	0.723	-0.171	1.27	-1.84	0.0583	0.635	-0.89
UAGCACCAUUUGAAAUCAGUGUU	0.253	0.947	0.425	0.295	0.287	0.166	-0.0949	-1.1	-3.34	-3.52	0.0122	0.729	-0.25	-0.394
AUUGACACUUCUGUGAGUAG	0.756	0.358	-0.709	-0.339	0.508	-0.955	-0.309	-1.35	-1.37	0.177	-1.2	-0.495	0.465	0.785
UACCCAUUGCAUAUCGGAGUUG	-1.15	1.65	-2.43	1.45	-2.74	0.783	0.189	-0.552	1.03	-0.434	-2.65	-0.072	0.632	0.729
CAAAGCGCUUCCCUUUGGAGC	-0.305	-0.805	0.27	-0.581	-0.495	0.413	0.795	0.957	0.503	0.103	0.353	0.322	-0.468	-0.385
CUCUUGAGGGAAGCACUUUCUGUU	1.52	0.199	-2.75	-0.277	0.407	-0.119	-0.664	-0.0184	1.21	0.894	-0.69	1.02	-0.331	0.305
UAGAUAAAAUAUUGGUACCUG	-0.19	0.0137	-0.242	0.271	-0.105	-0.186	0.836	-1.45	0.354	0.037	-0.296	0.412	-0.00826	0.578
UAAUCUCAGCUGGCAACUGUG	-0.952	1.06	0.579	0.197	-0.796	-0.148	0.474	0.207	-0.0147	0.412	0.502	-0.0854	-0.947	-0.775
UGGUUCUAGACUUGCCAACUA	0.383	-1.9	0.0797	0.238	-0.905	-0.954	0.292	-0.729	0.0613	0.807	1.08	0.495	0.0711	-0.646
AUCACAUUGCCAGGGAUUUCC	-0.3	-1.67	0.394	-0.00223	0.197	-0.492	-0.452	-0.216	0.0652	0.592	2.06	0.281	0.826	-1.29
AGGCACGGUGUCAGCAGGC	0.171	-0.203	0.283	0.509	0.478	0.0125	-0.153	0.32	0.393	-0.274	-0.659	0.629	0.0845	-0.839
CAUCUGGAGGUAAGAAGCACUUU	-2.31	0.269	1.19	-0.242	-1.9	-0.32	0.165	-0.503	0.143	-0.232	1.48	0.237	0.4	-1.18
AAAGUGCUUCCUUUUUGAGGG	-0.87	0.142	-0.0231	0.0093	-0.441	0.985	-0.00896	1.32	0.747	-0.0937	0.44	-0.296	1.02	0.0321
AGGCAGUGUAUUGUUAGCUGGC	-4.72	1.59	-4.67	-2.42	0.156	-4.34	0.697	0.369	0.842	-5.92	0.15	-0.179	-1.56	1.19
AGGCAGUGUAGUUAGCUGAUUGC	-4.27	0.647	-2.27	-1.05	0.754	-3.48	1.1	-1.02	-0.242	-5.02	-0.539	1.87	0.138	0.285
UUGUGCUUGAUCUAACCAUGU	0.205	0.391	0.117	0.0929	-0.134	0.182	-0.276	-1.73	0.164	-0.328	-0.746	0.222	0.758	-0.638
CUGCAAAGGGAAGCCCUUUCU	1.16	-0.0732	-2.67	1.15	0.529	-1.22	0.112	-0.887	-3.15	1.29	-4.11	-3.8	1.27	0.104
GCUGGGCAGGGCUUCUGAGCUCCUU	0.00877	-0.0026	0.53	-0.481	-0.4	-0.244	-0.298	1.06	-0.37	0.117	0.0169	-0.0238	0.659	-0.0785
